Counter-ions that a name gives are not always drawn.

Experimental findings from US20080182859A1 (Curis, Inc., priority 2006, published 2008) are described below.

Holding throughout (format): cell-based
For experiment [1], the system named is sonic hedgehog pathway. As to the kind of experiment: Hedgehog pathway Gli-luciferase reporter assay, TM3 cells. The note with it: TM3 mouse Leydig cells. An excerpt: (§1) Mouse (TM3: mouse Leydig cells; S12: mouse embryonic mesenchymal cells) and human (Daoy: human medulloblastoma cell; HepM: human embryonic palatal mesenchymal cell) cell lines are used to screen small molecules for their ability to modulate the activity of the sonic hedgehog pathway (Table 1, Table 2, and Table 3). Stable hedgehog pathway reporter cell lines are established by specific antibiotic selection following transfection of a reporter plasmid containing a luciferase gene located directly downstream from the gli promoter. Consequently, any observable changes in cellular luciferase activity may be attributed to changes in sonic hedgehog pathway activity in mouse and human cells, respectively, since gli is the major by-product of this pathway. To calculate activity, we generate an eleven point dose curve for each compound using 1:3 dilutions in 96 well assay plates. Each plate tested also contains low and high control to establish maximal pathway activation so to establish/compare a percentage activation of each tested compound (AMAX) on respective plates. Also we calculate EC50 values, or a concentration where the pathway will be exactly 50% activated, for each tested compound to determine potency. In these cell lines, compounds that register >20% AMAX values are considered active.
(§2) Stable hedgehog pathway reporter cell lines are established following specific antibiotic selection following transfection of a reporter plasmid In short, typically cells are plated in MicroTiter-plates at 10,000-20,000 cells per well, in growth media (containing 10%-20% FBS). After 48-72 hrs (HGL and DGL respectively) the media in the assay plates is switched to low-serum containing media (0.5% FBS). At that time compounds are added (at 1-5 μM) to the assay plates, in the presence or absence of hedgehog protein (octyl-modified version; 1-5 ng/ml). After another 24 hrs of incubation, the media from the assay plates is discarded and replaced with luciferase assay-mix. Subsequently, plates are incubated at RT for ˜15-30 mins and then read in a luminometer. [note: addition of the Hedgehog protein, although not critical, will sensitize the assay allowing the identification of weak actives].

For experiment [2], the system named is sonic hedgehog pathway. As to the kind of experiment: Human hedgehog reporter assay HEPM-GliLuc (HGL). The note with it: HepM human embryonic palatal mesenchymal cells, Gli-luciferase reporter.
Excerpt: as §1, §2
Background: A reporter such as luciferase makes a cellular process visible.

Experiment [3] concerns sonic hedgehog pathway. The experiment is described as follows: Human hedgehog reporter assay Daoy-GliLuc (DGL). The following applies: Daoy human medulloblastoma cells, Gli-luciferase reporter; read-out: Daoy Avg. EC50.
Excerpt: as §1, §2

A word on the EC50: it is the concentration that produces a half-maximal response. Consider `CCOc1ccc(-c2cc(C)nc(C)c2)cc1CN(C(=O)c1sc2ccccc2c1Cl)[C@H]1CC[C@H](NC)CC1` [Compound 400, 3-Chloro-benzo[b]thiophene-2-carboxylic acid [5-(2,6-dimethyl-pyridin-4-yl)-2-ethoxy-benzyl]-(4-methylamino-cyclohexyl)-amide dihydrochloride], for which the half-maximal effective concentration (EC50) in experiment [1] and in experiment [2] was 250 to 1000 nM in each case.

Turning to `CN[C@H]1CC[C@H](N(Cc2cc(-c3ccc(N(C)C)nc3)ccc2OC)C(=O)c2sc3ccccc3c2Cl)CC1` [Compound 405, 3-Chloro-benzo[b]thiophene-2-carboxylic acid [5-(6-dimethylamino-pyridin-3-yl)-2-methoxy-benzyl]-(4-methylamino-cyclohexyl)-amide bis(trifluoroacetate)], the EC50 in experiment [1] is 1000 to 2500 nM; in experiment [2] it was 250 to 1000 nM.

Take `CNc1ccc(-c2ccc(OC)c(CN(C(=O)c3sc4ccccc4c3Cl)[C@H]3CC[C@H](NC)CC3)c2)cn1` [Compound 397, 3-Chloro-benzo[b]thiophene-2-carboxylic acid [2-methoxy-5-(6-methylamino-pyridin-3-yl)-benzyl]-(4-methylamino-cyclohexyl)-amide dihydrochloride]: the EC50 in experiment [1] and in experiment [2] was 250 to 1000 nM throughout.

Turning to `CN[C@H]1CC[C@@H](N(Cc2cc(-c3cccc(C(C)=O)c3)ccc2OC)C(=O)c2sc3c(F)ccc(F)c3c2Cl)CC1` [Compound 364, 3-Chloro-4,7-difluoro-benzo[b]thiophene-2-carboxylic acid (3′-acetyl-4-methoxy-biphenyl-3-ylmethyl)-(4-methylamino-cyclohexyl)-amide hydrochloride], the EC50 in experiment [1] and in experiment [2] was below 50 nM each time.

For `CN[C@H]1CC[C@@H](N(Cc2cc(-c3cccc(C#N)c3)ccc2OC)C(=O)c2sc3c(F)ccc(F)c3c2Cl)CC1` [Compound 337, 3-Chloro-4,7-difluoro-benzo[b]thiophene-2-carboxylic acid (3′-cyano-4-methoxy-biphenyl-3-ylmethyl)-(4-methylamino-cyclohexyl)-amide hydrochloride], the EC50 in experiment [1] and in experiment [2] was below 50 nM throughout.

`CN[C@H]1CC[C@@H](N(Cc2cc(-c3ccncc3)ccc2OC)C(=O)c2sc3ccccc3c2Cl)CC1` [339 (R12)]: the EC50 in experiment [1] and in experiment [2] was below 50 nM each time.

Regarding `CN[C@H]1CC[C@@H](N(Cc2cc(-c3ccc(C)nc3)ccc2OC)C(=O)c2sc3ccccc3c2Cl)CC1` [Compound 320, 3-Chloro-benzo[b]thiophene-2-carboxylic acid [2-methoxy-5-(6-methyl-pyridin-3-yl)-benzyl]-(4-methylamino-cyclohexyl)-amide dihydrochloride], the EC50 in experiment [1] and in experiment [2] was below 50 nM each time.

`CN[C@H]1CC[C@H](N(Cc2cc(-c3ccc(C(=O)C(F)(F)F)cc3)ccc2F)C(=O)c2sc3c(F)ccc(F)c3c2Cl)CC1` [Compound 434, 3-Chloro-4,7-difluoro-benzo[b]thiophene-2-carboxylic acid [4-fluoro-4′-(2,2,2-trifluoro-acetyl)-biphenyl-3-ylmethyl]-(4-methylamino-cyclohexyl)-amide hydrochloride]: the EC50 in experiment [1] and in experiment [3] was below 50 nM in each case.

For the compound `CCOc1ccc(-c2ccc(N)nc2C)cc1CN(C(=O)c1sc2ccccc2c1Cl)[C@H]1CC[C@H](NC)CC1` [Compound 403, 3-Chloro-benzo[b]thiophene-2-carboxylic acid [5-(6-amino-2-methyl-pyridin-3-yl)-2-ethoxy-benzyl]-(4-methylamino-cyclohexyl)-amide dihydrochloride], the EC50 in experiment [1] was 1000 to 2500 nM; in experiment [2] it was 250 to 1000 nM.

With `CN[C@H]1CC[C@@H](N(Cc2cc(-c3cc(C)nc(C)c3)ccc2OC)C(=O)c2sc3ccccc3c2Cl)CC1` [Compound R1, 3-Chloro-benzo[b]thiophene-2-carboxylic acid [5-(2,6-dimethyl-pyridin-4-yl)-2-methoxy-benzyl]-(4-methylamino-cyclohexyl)-amide dihydrochloride], the EC50 was below 50 nM in experiment [1] and 50 to 250 nM in experiment [2].

Turning to `CN[C@H]1CC[C@@H](N(Cc2cc(-c3ccc(C(F)(F)F)cc3)ccc2OC)C(=O)c2sc3ccccc3c2Cl)CC1` [Compound 306, 3-Chloro-benzo[b]thiophene-2-carboxylic acid (4-methoxy-4′-trifluoromethyl-biphenyl-3-ylmethyl)-(4-methylamino-cyclohexyl)-amide trifluoroacetate], the EC50 in experiment [1] was 50 to 250 nM; in experiment [3] it was below 50 nM.

Turning to `CN[C@H]1CC[C@@H](N(Cc2cc(-c3ccc(C#N)cc3)ccc2OC)C(=O)c2sc3c(F)ccc(F)c3c2Cl)CC1` [Compound 351, 3-Chloro-4,7-difluoro-benzo[b]thiophene-2-carboxylic acid (4′-cyano-4-methoxy-biphenyl-3-ylmethyl)-(4-methylamino-cyclohexyl)-amide hydrochloride], the EC50 in experiment [1] and in experiment [2] was below 50 nM throughout.

For the compound `CCOc1ccc(-c2ccccc2)cc1CN(C(=O)c1sc2ccccc2c1Cl)[C@H]1CC[C@@H](NC)CC1` [Compound 313, 3-Chloro-benzo[b]thiophene-2-carboxylic acid (4-ethoxy-biphenyl-3-ylmethyl)-(4-methylamino-cyclohexyl)-amide hydrochloride], the EC50 in experiment [1] is 50 to 250 nM; in experiment [3] it was below 50 nM.

For `CN[C@H]1CC[C@@H](N(Cc2cc(-c3cccc(C#N)c3)ccc2OC)C(=O)c2sc3cccc(F)c3c2Cl)CC1` [Compound 365, 3-Chloro-4-fluoro-benzo[b]thiophene-2-carboxylic acid (3′-cyano-4-methoxy-biphenyl-3-ylmethyl)-(4-methylamino-cyclohexyl)-amide hydrochloride], the EC50 in experiment [1] and in experiment [3] was below 50 nM each time.

For `CNc1ncc(-c2ccc(OC)c(CN(C(=O)c3sc4ccccc4c3Cl)[C@H]3CC[C@@H](NC)CC3)c2)cn1` [Compound 322, 3-Chloro-benzo[b]thiophene-2-carboxylic acid [2-methoxy-5-(2-methylamino-pyrimidin-5-yl)-benzyl]-(4-methylamino-cyclohexyl)-amide dihydrochloride], the EC50 in experiment [1] was in the range of 250 to 1000 nM; in experiment [3], 50 to 250 nM.

Consider `CN[C@H]1CC[C@@H](N(Cc2cc(-c3ccc(F)cc3)ccc2OC)C(=O)c2sc3ccccc3c2Cl)CC1` [Compound 314, 3-Chloro-benzo[b]thiophene-2-carboxylic acid (4′-fluoro-4-methoxy-biphenyl-3-ylmethyl)-(4-methylamino-cyclohexyl)-amide hydrochloride], for which the EC50 in experiment [1] and in experiment [3] was below 50 nM throughout.

Take `CN[C@H]1CC[C@H](N(Cc2cc(-c3ccc(C#N)cc3)ccc2F)C(=O)c2sc3ccccc3c2Cl)CC1` [Compound 423, 3-Chloro-benzo[b]thiophene-2-carboxylic acid (4′-cyano-4-fluoro-biphenyl-3-ylmethyl)-(4-methylamino-cyclohexyl)-amide trifluoroacetate]: the EC50 in experiment [1] and in experiment [3] was 250 to 1000 nM each time.

For `CCOc1ccc(-c2ccc(C(F)(F)F)cc2)cc1CN(C(=O)c1sc2ccccc2c1Cl)[C@H]1CC[C@@H](NC)CC1` [Compound 309, 3-Chloro-benzo[b]thiophene-2-carboxylic acid (4-ethoxy-4′-trifluoromethyl-biphenyl-3-ylmethyl)-(4-methylamino-cyclohexyl)-amide hydrochloride], the EC50 in experiment [1] is 50 to 250 nM; in experiment [3], below 50 nM.

`CN[C@H]1CC[C@H](N(Cc2cc(-c3cccc(C#N)c3)ccc2F)C(=O)c2sc3ccccc3c2Cl)CC1` [Compound 420, 3-Chloro-benzo[b]thiophene-2-carboxylic acid (3′-cyano-4-fluoro-biphenyl-3-ylmethyl)-(4-methylamino-cyclohexyl)-amide trifluoroacetate]: the EC50 in experiment [1] and in experiment [3] was 50 to 250 nM throughout.

For the compound `CN[C@H]1CC[C@@H](N(Cc2cc(-c3cnc(N(C)C)nc3)ccc2OC)C(=O)c2sc3ccccc3c2Cl)CC1` [Compound 321, 3-Chloro-benzo[b]thiophene-2-carboxylic acid [5-(2-dimethylamino-pyrimidin-5-yl)-2-methoxy-benzyl]-(4-methylamino-cyclohexyl)-amide dihydrochloride], the values for the EC50 in experiment [1] and in experiment [3] were 1000 to 2500 nM and 50 to 250 nM, respectively.

For `CN[C@H]1CC[C@@H](N(Cc2cc(-c3ccc(Cl)cc3)ccc2OC)C(=O)c2sc3ccccc3c2Cl)CC1` [Compound 308, 3-Chloro-benzo[b]thiophene-2-carboxylic acid (4′-chloro-4-methoxy-biphenyl-3-ylmethyl)-(4-methylamino-cyclohexyl)-amide hydrochloride], the EC50 in experiment [1] and in experiment [3] was below 50 nM in each case.
